Structures are written as SMILES.

As a reminder, the melting point is the temperature of the solid-liquid transition. With `O=C(O)c1cccc(-c2cccc3cc(Cc4cccc(C(F)(F)F)c4)oc23)c1`, the melting point lay in the range of 169 to 170 °C.

As to `OCc1cnc2cc(F)ccc2c1O`, the melting point fell in the range of 295 to 300 °C.

In the case of `Cn1c(C(N)=O)nc([N+](=O)[O-])c1CBr`, the melting point is 220 to 222 °C.

In turn, `COc1ncc(-c2cc(N3CCOCC3)nc(-n3c(C(F)F)nc4c(OC)cccc43)n2)cn1` yielded a melting point of 238 to 241 °C.

The compound `O=C(O)CCCCCNC(=O)C1Cc2ccccc2N1S(=O)(=O)c1ccc(-c2cccc(C(F)(F)F)c2)cc1` (stereo not given) returned a melting point of 50 °C.

For the compound `O=C(NC1CC1)c1nc(-c2ccccc2)c(-c2ccc(=O)n(Cc3ccccc3)n2)s1`, the melting point lay in the range of 151 to 152 °C.

`CN(Cc1ccc(OC(C)(C)C(=O)O)cc1)c1ccc(Cl)cc1` displayed a melting point of 63 to 65 °C.

With `CC(=O)Nc1ccc(N2CCNCC2)cc1`, the melting point fell in the range of 191 to 193 °C.

As for `S=C(NCC1CCCCC1)NCC1CCCCC1`, the melting point was 124 to 125 °C.

For the compound `COC(CC1OCC(Br)([N+](=O)[O-])CO1)OC` (stereo not given), the melting point lay within 95 to 97 °C.

Compound `Cc1oc2ccc(C3CC(=O)NC(=O)C3)cc2c1C` had a melting point of 183 to 185 °C.

In turn, `CCOC1=NCCNC(c2ccccc2)=C1` yielded a melting point of 89 to 93.5 °C.

`Cc1cc(C)c2cccc(OCc3c(Cl)ccc(S(=O)(=O)N4CCC[C@H]4C(=O)NCCCN(C)C(=O)c4ccc(C=NN)cc4)c3Cl)c2n1` gave a melting point of 158 °C.

In turn, `CC(=O)OCCOCn1cnc2c(Cl)nc(Cl)nc21` showed a melting point of 96 to 99 °C.

Compound `COc1ccccc1C=C1NC(=O)NC1=O` displayed a melting point of 174 to 179 °C.

Consider `O=C(NCCCCN1CCC(c2c[nH]c3ccccc23)CC1)c1sc(-c2ccc(C(F)(F)F)cc2)nc1CO`, for which the melting point was found to be 235 °C.

Compound `COC(=O)c1coc2cc(Oc3ccnc(N)n3)ccc12` came in with a melting point of 194 to 196 °C.

For `Cn1c(=O)cc(-c2cccc(Cl)c2)c2cc(Br)ccc21`, the melting point turned out to be 182 °C.

Compound `C=CCNc1nc(NCCN)nc2ccc([N+](=O)[O-])cc12` returned a melting point of 126 to 128 °C.

`O=C1CC2CSc3sccc3C2=NN1c1ccc(Cl)cc1` (stereo not given) yielded a melting point of 134 to 135 °C.

As to `COc1cc(Nc2c(C#N)cnc3cc(-c4ccc(CN5CCN(C)CC5)cc4)sc23)c(Cl)cc1Cl`, the melting point lay within 226 to 228 °C.

On to `N#Cc1cnc2ccsc2c1Cl`, for which the melting point lay within 105 to 107 °C.

Turning to `CCCOc1c(OC)cc(N)c2ncccc12`, the melting point lay within 73 to 74 °C.

Turning to `COc1ccc2ccccc2c1C1OC(=O)NC1=O` (stereo not given), the melting point lay in the range of 199 to 201 °C.

For the compound `O=C(O)/C=C/c1cn(-c2cc(C(F)(F)F)cc(C(F)(F)F)c2)nc1-c1cccc(Cl)c1`, the melting point was 217 to 221 °C.

Consider `O=C1C(c2c[nH]c3ccccc23)C(c2c[nH]c3ccccc23)C(=O)N1Cc1ccccc1` (stereo not given), for which the melting point was 112 to 115 °C.

The compound `O=C(/C=C/c1ccncc1)N[C@H]1c2ccccc2C[C@H]1O` had a melting point of 205 to 207 °C.

The compound `CCOC(=O)/C=C/c1ccc(OCCCC#N)cc1Oc1ncc(C(F)(F)F)cc1Cl` gave a melting point of 106 to 107 °C.

In turn, `C[C@H](NS(=O)(=O)c1ccc(-c2c(C#N)c3cc(F)c(OC(F)F)cc3n2C2CCC2)nc1)C(F)(F)F` showed a melting point of 172 to 175 °C.

As for `O=C(NCC(F)(F)F)c1ccc(C2=NOC(c3cc(Cl)cc(Cl)c3)(C(F)(F)F)C2)cc1` (stereo not given), the melting point fell in the range of 94 to 96 °C.

The compound `COCCc1cc(O)ccc1N` showed a melting point of 82 °C.

Compound `CCCn1c(=O)c2nc(C(CC)c3ccc(OCC(=O)NCCN)cc3)[nH]c2n(CCC)c1=O` (stereo not given) had a melting point of 139 to 140 °C.

In the case of `CCCCOc1ccc(S(=O)(=O)N2CCC(NCc3ccccc3)C2)cc1` (stereo not given), the melting point fell in the range of 99 to 100 °C.

In turn, `c1ccc(C(c2ccccc2)N2CCN(CCCCCCNc3ccc4nncn4n3)CC2)cc1` had a melting point of 133 to 139 °C.

Take `O=C(NCc1ccccc1)c1ccccc1-c1ccccc1CNS(=O)(=O)c1cccc([N+](=O)[O-])c1`: the melting point came out at 175 °C.

As for `Cc1ccc(C)c(S(=O)(=O)n2c(CCCC(=O)O)cc3nc(Cl)ccc32)c1`, the melting point was 106 to 117 °C.

In turn, `COC(=O)NCc1cccc(-c2ccccc2)c1C` gave a melting point of 91 to 94 °C.

The compound `Cn1nccc(N)c1=O` returned a melting point of 191 to 192 °C.

`CCOCCn1c(CN2CCN(CCNc3nc4cnccc4[nH]3)CC2)nc2cccnc21` showed a melting point of 124 °C.

`CN1CCC(=C2c3cc(Cl)ccc3CC(=O)c3sccc32)CC1` returned a melting point of 168 to 169 °C.

`O=C(O)c1cn(C2CC2)c2c(F)c(N3CC4CCC3CN4)c(F)cc2c1=O` (stereo not given): the melting point fell in the range of 275 to 280 °C.

Take `COc1ccc(N2CCN(c3c(C)c(C)c4c(c3C)C(N3CCN(Cc5ccccc5)CC3)C(C)(C)O4)CC2)cc1` (stereo not given): the melting point is 112 to 116 °C.

As for `CC12CCC(=O)C=C1CCC1C2=CCC2(C)C1CCC2(O)C#N` (stereo not given), the melting point is 225 to 228 °C.

On to `O=[N+]([O-])N=C(NCc1cnc(Cl)s1)NCc1cnc(Cl)s1`, for which the melting point lay in the range of 217 to 218 °C.

In turn, `CCCCCCCCC1C=CC(Cc2ccc(C(=O)O)o2)=C2N=C3CCCCC3=C21` (stereo not given) gave a melting point of 152 to 155 °C.

The compound `COC(=O)C(=O)c1c(Cl)cc(OCCOc2ccc3ccccc3c2)cc1Cl` had a melting point of 142 to 144 °C.

Regarding `CONS(=O)(=O)c1ccc(C)cc1`, the melting point fell in the range of 116 to 117 °C.

As for `C[Si](C)(Oc1ccc(N)cc1)O[Si](C)(C)Oc1ccc(N)cc1`, the melting point is 56 to 57 °C.

`OCc1ccc(-c2ccc(F)cn2)cc1`: the melting point was 100 to 101 °C.

`OCc1ccc2c(c1)Nc1nccnc1S2` gave a melting point of 187 to 189 °C.

Compound `CCCCCCCCOc1ccc(-c2ccc(O)cc2)cc1` displayed a melting point of 154 °C.

Compound `NC(=S)C=C(N)CCOCc1ccccc1` gave a melting point of 93 to 94 °C.

The compound `COc1ccc([N+](=O)[O-])c(Nc2ccc3[nH]ncc3c2)n1` returned a melting point of 206 to 208 °C.

In the case of `O=Cc1cn(-c2cccnc2)nc1-c1ccc([N+](=O)[O-])o1`, the melting point lay within 237 to 238 °C.

Regarding `CCOC(=O)N1CCC(c2nc(-c3ccc(-c4ccccc4)cc3)c[nH]2)CC1`, the melting point fell in the range of 71 to 72 °C.

`CCN1CCc2sc3ncn(CCCl)c(=O)c3c2C1` had a melting point of 94 to 96 °C.

Turning to `COc1ccc(OC)c(C(=O)c2ccc(OCc3ccccc3)cc2)c1`, the melting point lay within 111 to 113 °C.

As to `O=C1C(=Cc2ccccc2)CCCC1c1ccccc1` (stereo not given), the melting point lay in the range of 75 to 78 °C.

Compound `COC(=O)c1ccc(NC(=O)c2cc(C(C)C)c(C(C)C)o2)cn1` registered a melting point of 186 to 188 °C.

`CC(=O)C1(c2cccc(OCc3ccc4c(ccc(=O)n4C)c3)c2)CCOCC1`: the melting point lay in the range of 125 to 126 °C.

Compound `c1ccc(Oc2ccc(OCn3cnc4ccccc43)cc2)cc1` came in with a melting point of 112 °C.

`O=C(O)CCCS(=O)(=O)c1ccccc1`: the melting point lay in the range of 94 to 95 °C.

On to `CCCCCCCCCCCCCCCCOc1cc(O)c(NC(C)=O)cc1C12CC3CC(CC(C3)C1)C2`, for which the melting point lay in the range of 146 to 148 °C.

Compound `CC(C)(C)OC(=O)NCCCBr` came in with a melting point of 40 °C.

`Cc1c(O)cc2c(c1C)N(C=O)C(C)C2` (stereo not given) gave a melting point of 155 to 159 °C.

For `CCCC(=O)N(C)c1cccc(-c2ccc3nnc(C)n3n2)c1`, the melting point was in the range of 140 to 143 °C.

As to `O=C1Nc2ccccc2SC(c2ccccc2)=C1Cl`, the melting point lay within 239 to 241 °C.

Turning to `COc1cc2cnnc(N3CCC(=O)CC3)c2cc1OC`, the melting point was 180 to 181 °C.

`CC(C)(C)OC(=O)NCC(=O)Nc1c(C(=O)CC(=O)Nc2nccs2)cccc1C(F)(F)F`: the melting point stood at 166 °C.

`CC(=CC(=O)NCCCCCC(=O)NO)c1ccccc1` showed a melting point of 131 to 133 °C.

`Cc1c(O)c(C)c2nc(COc3ccc(CC4SC(=O)NC4=O)cc3)n(C)c2c1C` (stereo not given): the melting point fell in the range of 240 to 244 °C.

`Cc1c(C)c2c(c(C)c1OC(=O)c1ccccc1)SC(CCCOC(=O)c1ccccc1)O2` (stereo not given) had a melting point of 114 to 116 °C.

In turn, `CCNC(=O)c1ccccc1Nc1nc(Nc2ccc3c(c2)CCN(CCOC)CC3)ncc1Cl` returned a melting point of 150 to 184 °C.

`CO[C@]1(c2ncc(S(=O)(=O)c3ccc(/C(C)=N/O)cc3)s2)CCO[C@@H]1C` (racemic): the melting point lay in the range of 139 to 141 °C.

`Cc1c(CC(=O)NCCCO[N+](=O)[O-])cc(-c2ccc(S(C)(=O)=O)cc2)n1-c1ccc(F)cc1`: the melting point was found to be 127 °C.

`CC(=O)c1c(-c2ccnc3ccccc23)[nH]c(-c2ccnc3ccccc23)c1C` registered a melting point of over 260 °C.

On to `C=C(C)COc1ccc(C(=O)C=Cc2ccc(OC)cc2OC)c(O)c1`, for which the melting point is 106 to 107 °C.

In turn, `CC(C)=CCCC(C)=CCCC(C)=CC=CC(C)=CC(=O)O` gave a melting point of 78.4 °C.

`CCc1ccc(/C=C/c2nc(COc3ccc(CCCCn4ccnc4CCO)cc3)co2)cc1` gave a melting point of 94 to 95 °C.

The compound `CC(C)(C)NC(=O)c1nn(-c2ccc(C(F)(F)F)cc2)c2c1C1CCC2CC1` yielded a melting point of 174 to 176 °C.

`O=C(O)CCC(=NO)c1ccc(-c2ccc(Br)cc2)cc1` returned a melting point of 175 to 176 °C.

In turn, `CC(=O)SCCC(=O)N1c2ccc(C)cc2CCC1C(=O)O` (stereo not given) had a melting point of 118 to 120 °C.

The compound `CNC(=O)C1CN(CC(=O)Nc2c(Cl)cc(Cl)cc2Cl)CCN1` (stereo not given) gave a melting point of 169 °C.

The compound `CC1CCCN1c1nc(C#N)nc(Cl)c1/C(Br)=C(\Br)[Si](C)(C)C` (stereo not given) gave a melting point of 166 to 168 °C.

In turn, `CCCCCCC(O)CCCCCCCCCCC(=O)NCC(O)CNCCO` (stereo not given) gave a melting point of 97.7 to 99.6 °C.

Regarding `CN(C)c1cccc(C(=O)NC2CCN(C(c3ccccc3)c3ccccc3)CC2)c1[N+](=O)[O-]`, the melting point amounted to 176 °C.

On to `OC1CSC(Oc2ccccc2-n2ccc3ccccc32)C(O)C1O` (stereo not given), for which the melting point lay within 70 to 73 °C.

For the compound `C[C@@H](CO)NS(=O)(=O)c1ccccc1[N+](=O)[O-]`, the melting point fell in the range of 82 to 83 °C.

As for `O=C1CC(c2cccc(-n3cncn3)c2)=Nc2ccc(C#Cc3ccc(F)cc3)cc2N1`, the melting point was in the range of 217 to 218 °C.

As to `CCOC(=O)c1cnc2n(c1=O)C(C)CCC2=NNc1ccc(Cl)cc1` (stereo not given), the melting point lay within 177 to 178 °C.

The values are drawn from a melting point compilation (Tetko et al.; mined from patent text by program, amines drawn as free bases though some values may be those of a salt).
